# Laboratory results published in the NIST ThermoML archive (doi:10.1016/j.jct.2013.04.021).
# Numbers after ± are expanded uncertainties.
# Conditions: 298.15 K, 101.33 kPa, Liquid; for viscosity: Capillary tube (Ostwald / Ubbelohde) method; for speed of sound: Sing-around technique in a fixed-path interferometer; for mass density: Vibrating tube method
SMILES,viscosity,speed of sound,mass density
CCCCOCCO [2-butoxyethan-1-ol],2.885 ± 0.063 mPa·s,1306 ± 1.6 m/s,896.312 ± 0.24 kg/m3
CCCCCCCCCCO [decan-1-ol],11.81 ± 0.28 mPa·s,1379.4 ± 1.6 m/s,826.489 ± 0.24 kg/m3
CCCCCCO [hexan-1-ol],4.623 ± 0.1 mPa·s,1303.5 ± 1.6 m/s,815.652 ± 0.24 kg/m3
CCCCCCCCO [octan-1-ol],7.68 ± 0.17 mPa·s,1347.3 ± 1.6 m/s,821.877 ± 0.24 kg/m3
